Here are results for four compounds from PMC6400181, “Calixarene-mediated assembly of a small antifungal protein” (IUCrJ, 2019).

In one assay the test system is cytochrome c. Details: method as in Rennie et al., 2017. Conditions: relative to sclx4, ref Rennie et al., 2017; cited from earlier work.
Assay [1] addresses PAF (Penicillium antifungal protein) (Penicillium chrysogenum, UniProt Q01701). Kind of assay: Isothermal titration calorimetry of PAF–sclxn complexation. Format: binding. Conditions: ITC, median (2.5% quantile, 97.5% quantile). Here is the method: PAF samples were dissolved in 10 mM sodium phosphate pH 6.0. The same buffer was used to dilute stocks of sclx4 (7.1 mM, PAF 0.5 mM), sclx6 (3.6 mM, PAF 0.5 mM) and sclx8 (2.5 mM, PAF 0.3 mM) to the required concentration. Samples were degassed prior to the titration. Measurements were made at 25°C using a Microcal ITC-200 instrument. Titrations were performed in duplicate with similar trends between each replicate. A single replicate from each calixarene was used for model fitting. Separate titrations of each calixarene into buffer confirmed that the heats of dilution were small, exothermic and approximately constant.
NITPIC (Keller et al., 2012[▸]) was used for baseline correction and integration of the thermograms. Pytc (Duvvuri et al., 2018[▸]) was used to perform model fitting and parameter estimation. The system of equations relating the independent variables of the model (total concentrations) to the experimental observations (heat generated during injections) for the single-site and bidentate-ligand models are as follows.
Single-site model, [drawing 1] [drawing 2] [drawing 3] where [P T]i is the total cell concentration of protein at the ith injection (independent variable), [L T]i is the total cell concentration of ligand at the ith injection (independent variable), K 1 is the equilibrium association constant (fit parameter), ΔH is the enthalpy (fit parameter) associated with K, V cell is the volume of the cell, vi is the volume of the ith injection, qi is the heat generated from the ith injection (dependent variable) and q dil is the heat of dilution (fit parameter, assumed to be constant)
Bidentate-ligand model, [drawing 4] [drawing 5] [drawing 6] where K 1 and K 2 are the microscopic equilibrium association constants (fit parameters), ΔH 1 and ΔH 2 are the enthalpies (fit parameters) associated with K 1 and K 2, respectively
The expressions for mass balance of the protein and ligand can be represented by equations (1) or (4). Equation (2) or (5) can be used to define the equilibrium constants. For the bidentate ligand model, equation (5) was solved numerically (the Levenberg–Marquardt algorithm) to yield the free-protein ([P]i) and free-ligand ([L]i) concentrations. The free concentrations were used to compute the concentrations of the other states via the equilibrium equations. The heat generated from a given injection was determined using either equations (3) or (6). Parameters were constrained to physically reasonable bounds (e.g. K 1 and K 2 values between 10^2 and 10^10 M ^−1) and best-fits were obtained by maximum likelihood starting from a range of initial estimates. Parameter errors and correlations were estimated using a Bayesian approach (Markov chain Monte Carlo simulations). The error for each integrated heat was determined using NITPIC (Keller et al., 2012[▸]).
Isothermal titration calorimetry was used to characterize the PAF–sclxn binding affinities and stoichiometries (Fig. 7 ▸). The data were fitted to a single-site or a bidentate-ligand model. The latter model describes a bidentate ligand that can bind two protein molecules and was necessary to describe the obviously biphasic data for sclx8. The choice of this model is supported by the observation of a PAF–sclx8–PAF dimer in the crystal structure, and by the spectral broadening in the NMR experiments. All of the fit parameters were well determined by the data (Table 1 ▸), with parameter errors assessed by Bayesian methods (Patil et al., 2010[▸]).
Background: In ITC the heat of successive injections is recorded.

The mark [2] stands for this setting: single-site model, 10 mM sodium phosphate pH 6.0, 25°C.
The mark [3] stands for this setting: bidentate-ligand model, binding the first molecule of PAF (K1), pH 6.0, 25°C.
[4] abbreviates: bidentate-ligand model, binding the second molecule of PAF (K2), pH 6.0, 25°C.
Where [5] appears, read: bidentate-ligand model, first molecule of PAF (ΔH1), pH 6.0, 25°C.
[6] abbreviates: bidentate-ligand model, first molecule of PAF, pH 6.0, 25°C.
Where [7] appears, read: bidentate-ligand model, second molecule of PAF (ΔH2), pH 6.0, 25°C.
The mark [8] stands for this setting: bidentate-ligand model, second molecule of PAF, pH 6.0, 25°C.

Chain of PAF (Penicillium antifungal protein) (Q01701 entry or part of it): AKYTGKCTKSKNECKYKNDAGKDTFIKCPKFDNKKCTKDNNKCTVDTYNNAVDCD

Consider `O=P(O)(O)c1cc2c(O)c(c1)Cc1cc(P(=O)(O)O)cc(c1O)Cc1cc(P(=O)(O)O)cc(c1O)Cc1cc(P(=O)(O)O)cc(c1O)Cc1cc(P(=O)(O)O)cc(c1O)Cc1cc(P(=O)(O)O)cc(c1O)C2` [pclx6, phosphonato-calix[6]arene], for which the “increase in affinity (with respect to sclx4)” value in the assay on cytochrome c was “approximately tenfold”.

Usually Kd stands for the equilibrium constant for the complex coming apart. Low readings indicate tighter binding, high ones weaker binding. As for `O=S(=O)(O)c1cc2c(O)c(c1)Cc1cc(S(=O)(=O)O)cc(c1O)Cc1cc(S(=O)(=O)O)cc(c1O)Cc1cc(S(=O)(=O)O)cc(c1O)C2` [sclx4], in assay [1] (setting [2]), the Kd turned out to be 107 µM; the TΔS was −5.6 (0.2, 0.2) kJ mol^−1; the ΔH is reported as −16.9 (0.1, 0.1) kJ mol^−1.

In the case of `O=S(=O)(O)c1cc2c(O)c(c1)Cc1cc(S(=O)(=O)O)cc(c1O)Cc1cc(S(=O)(=O)O)cc(c1O)Cc1cc(S(=O)(=O)O)cc(c1O)Cc1cc(S(=O)(=O)O)cc(c1O)Cc1cc(S(=O)(=O)O)cc(c1O)C2` [sclx6], the Kd is 47.8 µM in assay [1] (setting [3]), 45.8 µM in assay [1] (setting [4]) and 15.4 µM in assay [1] (setting [2]). Further, the ΔH in assay [1] (setting [5]) was −9.2 (0.1, 0.2) kJ mol^−1; in assay [1] (setting [7]), −20.1 (0.4, 0.4) kJ mol^−1; in assay [1] (setting [2]) it was −28.2 (0.2, 0.1) kJ mol^−1. Moreover, the TΔS in assay [1] (setting [6]) is on record as −15.4 (0.4, 0.3) kJ mol^−1; in assay [1] (setting [8]) it was −4.6 (0.6, 0.6) kJ mol^−1; in assay [1] (setting [2]), −0.7 (0.2, 0.2) kJ mol^−1.

Consider `O=S(=O)(O)c1cc2c(O)c(c1)Cc1cc(S(=O)(=O)O)cc(c1O)Cc1cc(S(=O)(=O)O)cc(c1O)Cc1cc(S(=O)(=O)O)cc(c1O)Cc1cc(S(=O)(=O)O)cc(c1O)Cc1cc(S(=O)(=O)O)cc(c1O)Cc1cc(S(=O)(=O)O)cc(c1O)Cc1cc(S(=O)(=O)O)cc(c1O)C2` [sclx8, Sulfonato-calix[8]arene], for which the Kd in assay [1] (setting [3]) is 10.6 µM; in assay [1] (setting [4]), 33.5 µM. The ΔH in assay [1] (setting [5]) is −3.5 (0.3, 0.3) kJ mol^−1; in assay [1] (setting [7]), −36.0 (1.7, 1.4) kJ mol^−1. Also, the TΔS in assay [1] (setting [6]) is −24.8 (0.3, 0.3) kJ mol^−1; in assay [1] (setting [8]), 10.5 (1.8, 2.1) kJ mol^−1.
